Numbers after ± are expanded uncertainties.
Tests used:
[1] = molar heat capacity at constant pressure; xn = mol fraction of the nth substance listed; conditions: 101.3 kPa, Liquid, Small sample (50 mg) DSC
[2] = excess molar enthalpy (molar enthalpy of mixing); xn = mol fraction of the nth substance listed; conditions: 101 kPa, Liquid, Calvet calorimetry

CCn1cc[n+](C)c1.O=S(=O)([O-])C(F)(F)F [1-ethyl-3-methylimidazolium trifluoromethanesulfonate] + O
Conditions	excess molar enthalpy [kJ/mol]	molar heat capacity at constant pressure [J/K/mol]
[1], 283.15 K, x2 = 0	–	353 ± 29
[1], 283.15 K, x2 = 0.2259	–	283 ± 23
[1], 283.15 K, x2 = 0.4351	–	226 ± 18
[1], 283.15 K, x2 = 0.6152	–	181 ± 15
[1], 283.15 K, x2 = 0.7835	–	135 ± 11
[1], 283.15 K, x2 = 0.8614	–	114 ± 9
[1], 283.15 K, x2 = 0.9353	–	94 ± 8
[1], 283.15 K, x2 = 0.9712	–	80 ± 7
[1], 283.15 K, x2 = 0.9924	–	76 ± 6
[1], 293.15 K, x2 = 0	–	358 ± 29
[1], 293.15 K, x2 = 0.2259	–	287 ± 23
[1], 293.15 K, x2 = 0.4351	–	230 ± 19
[1], 293.15 K, x2 = 0.6152	–	184 ± 15
[1], 293.15 K, x2 = 0.7835	–	137 ± 11
[1], 293.15 K, x2 = 0.8614	–	115 ± 9
[1], 293.15 K, x2 = 0.9353	–	95 ± 8
[1], 293.15 K, x2 = 0.9712	–	81 ± 7
[1], 293.15 K, x2 = 0.9924	–	77 ± 6
[1], 303.15 K, x2 = 0	–	366 ± 30
[1], 303.15 K, x2 = 0.2259	–	294 ± 24
[1], 303.15 K, x2 = 0.4351	–	236 ± 19
[1], 303.15 K, x2 = 0.6152	–	189 ± 15
[1], 303.15 K, x2 = 0.7835	–	140 ± 11
[1], 303.15 K, x2 = 0.8614	–	118 ± 10
[1], 303.15 K, x2 = 0.9353	–	97 ± 8
[1], 303.15 K, x2 = 0.9712	–	83 ± 7
[1], 303.15 K, x2 = 0.9924	–	78 ± 6
[1], 313.15 K, x2 = 0	–	371 ± 30
[1], 313.15 K, x2 = 0.2259	–	298 ± 24
[1], 313.15 K, x2 = 0.4351	–	239 ± 19
[1], 313.15 K, x2 = 0.6152	–	191 ± 16
[1], 313.15 K, x2 = 0.7835	–	142 ± 12
[1], 313.15 K, x2 = 0.8614	–	120 ± 10
[1], 313.15 K, x2 = 0.9353	–	98 ± 8
[1], 313.15 K, x2 = 0.9712	–	83 ± 7
[1], 313.15 K, x2 = 0.9924	–	78 ± 6
[1], 323.15 K, x2 = 0	–	376 ± 31
[1], 323.15 K, x2 = 0.2259	–	302 ± 25
[1], 323.15 K, x2 = 0.4351	–	242 ± 20
[1], 323.15 K, x2 = 0.6152	–	193 ± 16
[1], 323.15 K, x2 = 0.7835	–	144 ± 12
[1], 323.15 K, x2 = 0.8614	–	122 ± 10
[1], 323.15 K, x2 = 0.9353	–	99 ± 8
[1], 323.15 K, x2 = 0.9712	–	84 ± 7
[1], 323.15 K, x2 = 0.9924	–	78 ± 6
[1], 333.15 K, x2 = 0	–	380 ± 31
[1], 333.15 K, x2 = 0.2259	–	306 ± 25
[1], 333.15 K, x2 = 0.4351	–	245 ± 20
[1], 333.15 K, x2 = 0.6152	–	195 ± 16
[1], 333.15 K, x2 = 0.7835	–	146 ± 12
[1], 333.15 K, x2 = 0.8614	–	123 ± 10
[1], 333.15 K, x2 = 0.9353	–	99 ± 8
[1], 333.15 K, x2 = 0.9712	–	85 ± 7
[1], 333.15 K, x2 = 0.9924	–	79 ± 6
[1], 343.15 K, x2 = 0	–	384 ± 31
[1], 343.15 K, x2 = 0.2259	–	311 ± 25
[1], 343.15 K, x2 = 0.4351	–	249 ± 20
[1], 343.15 K, x2 = 0.6152	–	197 ± 16
[1], 343.15 K, x2 = 0.7835	–	148 ± 12
[1], 343.15 K, x2 = 0.8614	–	125 ± 10
[1], 343.15 K, x2 = 0.9353	–	100 ± 8
[1], 343.15 K, x2 = 0.9712	–	85 ± 7
[1], 343.15 K, x2 = 0.9924	–	79 ± 6
[2], 313.13 K, x2 = 0.2487	0.702 ± 0.029	–
[2], 313.13 K, x2 = 0.2495	0.703 ± 0.029	–
[2], 313.13 K, x2 = 0.4958	1.12 ± 0.046	–
[2], 313.13 K, x2 = 0.4972	1.13 ± 0.046	–
[2], 313.13 K, x2 = 0.7477	1.01 ± 0.041	–
[2], 323.12 K, x2 = 0.2476	0.694 ± 0.028	–
[2], 323.12 K, x2 = 0.2495	0.7 ± 0.029	–
[2], 323.12 K, x2 = 0.4959	1.15 ± 0.047	–
[2], 323.12 K, x2 = 0.4969	1.15 ± 0.047	–
[2], 323.12 K, x2 = 0.7471	1.08 ± 0.044	–
[2], 323.12 K, x2 = 0.7474	1.08 ± 0.044	–
[2], 333.13 K, x2 = 0.2482	0.698 ± 0.028	–
[2], 333.13 K, x2 = 0.2485	0.698 ± 0.028	–
[2], 333.13 K, x2 = 0.495	1.18 ± 0.048	–
[2], 333.13 K, x2 = 0.4986	1.19 ± 0.048	–
[2], 333.13 K, x2 = 0.7477	1.16 ± 0.047	–
[2], 333.13 K, x2 = 0.7479	1.16 ± 0.047	–
[2], 348.12 K, x2 = 0.2497	0.701 ± 0.029	–
[2], 348.12 K, x2 = 0.2514	0.707 ± 0.029	–
[2], 348.12 K, x2 = 0.4967	1.24 ± 0.051	–
[2], 348.12 K, x2 = 0.4985	1.25 ± 0.051	–
[2], 348.12 K, x2 = 0.748	1.29 ± 0.052	–
[2], 348.12 K, x2 = 0.7481	1.29 ± 0.052	–
